According to US11279699B2 (Suzhou Longbiotech Pharmaceuticals Co., Ltd., priority 2016, dated 2022):

Legend:
Format in all cases: biochemical
JAK2 = JAK2 (Homo sapiens (Human), UniProt O60674); assay: Inhibition of JAK, luminescence kinase assay (ADP-Glo), JAK2; conditions: purified recombinant JAK2
Method: (§1) The study of the effect of compounds on the activity of purified recombinant JAK was performed by studying the inhibitory activity of the compounds on JAK from the enzymatic level. The experimental principle is to use a luminescence kinase assay to detect the ADP content produced by the reaction of JAK with the substrate Poly (4:1 Glu, Tyr) peptide: after ADP is converted to ATP, ATP can act as a substrate for the Ultra-Glo luciferase catalytic reaction, producing an optical signal. The luminescence signal is positively correlated with the amount of ADP and kinase activity. Therefore, the inhibitory effect of the compounds on the recombinant JAK was determined by observing the luminescence signal produced by the reaction of JAK and the substrate, and was expressed by IC50.
(§2) Experimental method: 10 different concentrations of compounds were incubated with JAK1, JAK2 and JAK3, respectively, for 60 minutes at 37° C. The substrate and ATP were then added, mixed, and reacted at 37° C. for 50 minutes. 25 μl of ADP-Glo™ was added and mixed for 2 minutes. The reaction was carried out for 50 minutes at room temperature. Further, 50 μl of the detection reagent was added and mixed for 2 minutes, and incubated at room temperature for 50 minutes, and detected by a chemiluminometer.

JAK1 = JAK1 (Homo sapiens (Human), UniProt P23458); assay: Inhibition of JAK, luminescence kinase assay (ADP-Glo), JAK1; conditions: for IC50: purified recombinant JAK1
Method: as §1, §2

JAK3 = JAK3 (Homo sapiens (Human), UniProt P52333); assay: Inhibition of JAK, luminescence kinase assay (ADP-Glo), JAK3; conditions: purified recombinant JAK3
Method: as §1, §2

[1] = Table 2, same experimental conditions

Sequence of JAK2 (O60674 whole entry): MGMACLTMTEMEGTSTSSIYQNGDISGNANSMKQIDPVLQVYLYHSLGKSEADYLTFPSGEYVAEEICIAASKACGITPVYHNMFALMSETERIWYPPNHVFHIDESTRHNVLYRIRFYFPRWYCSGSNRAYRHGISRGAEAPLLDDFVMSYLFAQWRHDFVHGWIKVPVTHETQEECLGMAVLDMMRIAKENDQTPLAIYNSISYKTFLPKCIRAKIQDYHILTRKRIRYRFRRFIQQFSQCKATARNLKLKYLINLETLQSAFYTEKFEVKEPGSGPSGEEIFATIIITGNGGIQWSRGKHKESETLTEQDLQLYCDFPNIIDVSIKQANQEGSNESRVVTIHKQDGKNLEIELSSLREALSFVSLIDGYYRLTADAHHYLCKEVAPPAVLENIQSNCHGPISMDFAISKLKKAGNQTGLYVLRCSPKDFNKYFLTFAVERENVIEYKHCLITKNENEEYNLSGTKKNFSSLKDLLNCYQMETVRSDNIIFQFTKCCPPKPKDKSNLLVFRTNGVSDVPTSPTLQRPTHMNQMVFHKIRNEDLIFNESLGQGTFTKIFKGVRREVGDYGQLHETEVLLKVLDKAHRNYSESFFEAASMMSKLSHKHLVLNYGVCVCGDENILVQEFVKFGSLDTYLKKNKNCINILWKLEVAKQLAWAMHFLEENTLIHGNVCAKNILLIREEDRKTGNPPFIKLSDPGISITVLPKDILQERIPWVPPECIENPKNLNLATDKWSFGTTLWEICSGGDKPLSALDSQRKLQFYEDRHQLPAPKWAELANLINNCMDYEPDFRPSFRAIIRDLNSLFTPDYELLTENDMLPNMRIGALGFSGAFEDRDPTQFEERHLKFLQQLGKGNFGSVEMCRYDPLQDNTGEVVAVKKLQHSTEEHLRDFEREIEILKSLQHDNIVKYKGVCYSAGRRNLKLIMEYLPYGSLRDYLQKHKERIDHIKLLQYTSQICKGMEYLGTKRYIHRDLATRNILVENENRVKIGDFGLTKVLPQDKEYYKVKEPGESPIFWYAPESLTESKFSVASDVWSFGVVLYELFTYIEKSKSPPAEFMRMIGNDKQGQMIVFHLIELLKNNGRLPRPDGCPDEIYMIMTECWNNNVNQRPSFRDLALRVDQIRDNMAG
Sequence of JAK1 (P23458 whole entry): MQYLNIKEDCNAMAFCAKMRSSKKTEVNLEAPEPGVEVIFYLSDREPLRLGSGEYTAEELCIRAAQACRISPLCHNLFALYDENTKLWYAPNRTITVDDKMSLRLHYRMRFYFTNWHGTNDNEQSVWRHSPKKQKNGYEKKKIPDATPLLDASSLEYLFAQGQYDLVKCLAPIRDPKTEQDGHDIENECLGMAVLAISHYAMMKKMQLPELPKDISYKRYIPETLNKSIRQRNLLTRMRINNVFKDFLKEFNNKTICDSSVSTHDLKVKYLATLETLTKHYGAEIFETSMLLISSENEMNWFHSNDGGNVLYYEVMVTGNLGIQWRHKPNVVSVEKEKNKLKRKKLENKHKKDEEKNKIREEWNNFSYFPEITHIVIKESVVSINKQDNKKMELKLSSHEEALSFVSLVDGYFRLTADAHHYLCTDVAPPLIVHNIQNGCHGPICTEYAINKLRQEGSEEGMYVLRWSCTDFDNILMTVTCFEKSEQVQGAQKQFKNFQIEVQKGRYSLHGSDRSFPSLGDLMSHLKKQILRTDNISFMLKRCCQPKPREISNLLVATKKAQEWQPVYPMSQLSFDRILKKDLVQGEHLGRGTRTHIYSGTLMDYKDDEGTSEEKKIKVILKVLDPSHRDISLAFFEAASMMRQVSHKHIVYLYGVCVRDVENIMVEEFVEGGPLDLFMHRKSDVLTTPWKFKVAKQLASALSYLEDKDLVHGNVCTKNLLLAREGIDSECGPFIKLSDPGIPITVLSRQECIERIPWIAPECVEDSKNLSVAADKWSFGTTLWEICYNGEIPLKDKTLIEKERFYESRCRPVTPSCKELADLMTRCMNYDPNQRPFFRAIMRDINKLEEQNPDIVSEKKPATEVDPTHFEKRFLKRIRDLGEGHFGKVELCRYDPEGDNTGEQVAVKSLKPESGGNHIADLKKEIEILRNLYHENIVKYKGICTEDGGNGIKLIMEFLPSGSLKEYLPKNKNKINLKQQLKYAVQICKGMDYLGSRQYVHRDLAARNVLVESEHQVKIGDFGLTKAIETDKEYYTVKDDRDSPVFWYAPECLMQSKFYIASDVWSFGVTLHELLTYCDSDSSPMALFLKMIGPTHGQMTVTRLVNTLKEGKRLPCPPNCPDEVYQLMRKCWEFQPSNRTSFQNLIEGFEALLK
Sequence of JAK3 (P52333 whole entry): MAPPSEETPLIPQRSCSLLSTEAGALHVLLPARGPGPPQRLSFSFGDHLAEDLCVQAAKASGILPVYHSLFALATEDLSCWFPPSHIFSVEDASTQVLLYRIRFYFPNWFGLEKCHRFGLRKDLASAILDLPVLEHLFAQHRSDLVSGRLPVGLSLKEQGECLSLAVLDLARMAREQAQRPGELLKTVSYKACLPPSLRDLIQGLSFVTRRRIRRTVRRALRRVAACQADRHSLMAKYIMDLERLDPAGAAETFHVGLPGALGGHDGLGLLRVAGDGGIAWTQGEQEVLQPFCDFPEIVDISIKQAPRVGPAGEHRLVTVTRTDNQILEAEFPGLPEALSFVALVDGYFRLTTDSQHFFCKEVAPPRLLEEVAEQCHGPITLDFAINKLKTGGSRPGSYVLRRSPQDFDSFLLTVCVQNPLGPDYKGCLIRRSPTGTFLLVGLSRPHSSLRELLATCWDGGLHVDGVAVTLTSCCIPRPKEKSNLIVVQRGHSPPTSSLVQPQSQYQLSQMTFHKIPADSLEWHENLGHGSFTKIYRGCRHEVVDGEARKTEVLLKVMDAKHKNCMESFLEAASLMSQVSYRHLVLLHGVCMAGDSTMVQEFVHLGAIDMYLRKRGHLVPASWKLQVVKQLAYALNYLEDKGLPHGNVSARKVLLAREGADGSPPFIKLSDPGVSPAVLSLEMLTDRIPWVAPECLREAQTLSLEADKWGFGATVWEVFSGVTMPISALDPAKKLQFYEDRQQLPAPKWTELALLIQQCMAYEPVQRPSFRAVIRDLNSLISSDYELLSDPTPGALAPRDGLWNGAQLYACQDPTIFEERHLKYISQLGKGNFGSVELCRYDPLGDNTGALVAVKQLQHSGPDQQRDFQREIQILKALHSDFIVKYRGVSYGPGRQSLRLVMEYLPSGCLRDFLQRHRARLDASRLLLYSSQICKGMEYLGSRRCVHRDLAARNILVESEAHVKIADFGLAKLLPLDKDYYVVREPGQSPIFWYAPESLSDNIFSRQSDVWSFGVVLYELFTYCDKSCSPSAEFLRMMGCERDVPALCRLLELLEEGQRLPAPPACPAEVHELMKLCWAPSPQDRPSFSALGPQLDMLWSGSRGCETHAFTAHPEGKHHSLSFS

| Compound | IC50 (JAK2; Table 1) [µM] | IC50 (JAK1; Table 1) [µM] | IC50 (JAK3; Table 1) [µM] | IC50 (JAK2; [1]) [µM] | inhibitory activity against JAK1 relative to JAK2 (selectivity) (JAK1; JAK1 versus JAK2, from Table 2) [times] | IC50 (JAK1; [1]) [µM] | IC50 (JAK3; [1]) [µM] |
| --- | --- | --- | --- | --- | --- | --- | --- |
| CCS(=O)(=O)C1CN(Cc2ccc(-c3cccc4nc(NC(=O)C5CC5)nn34)cc2)C1 [Example 7, N-(5-(4-((3-(ethylsulfonyl)azetidin-1-yl)methyl)phenyl)-[1,2,4]triazolo[1,5-a]pyridin-2-yl]cyclopropanecarboxamide] | > 0.05 | 0.02 to 0.05 | – | – | – | – | – |
| CCS(=O)(=O)C1CN(Cc2ccc(-c3cccn4nc(N)nc34)cc2)C1 [Example 18, 8-(4-((3-(ethylsulfonyl)azetidin-1-yl)methyl)phenyl)-[1,2,4]triazolo[1,5-a]pyridin-2-ylamine] | > 0.05 | > 0.05 | > 0.05 | – | – | – | – |
| CCS(=O)(=O)C1CN(Cc2ccc(-c3cccn4nc(NC(=O)C(C)C)nc34)cc2)C1 [Example 14, N-(8-(4-((3-(ethylsulfonyl)azetidin-1-yl)methyl)phenyl)-[1,2,4]triazolo[1,5-a]pyridin-2-yl]isobutyramide] | > 0.05 | 0.02 to 0.05 | > 0.05 | – | – | – | – |
| CS(=O)(=O)C1CN(Cc2ccc(-c3cccc4nc(N)nn34)cc2)C1 [Example 8, 5-(4-((3-(methylsulfonyl)azetidin-1-yl)methyl)phenyl)-[1,2,4]triazolo[1,5-a]pyridin-2-ylamine] | > 0.05 | 0.02 to 0.05 | 0.02 to 0.05 | – | – | – | – |
| O=S1(=O)CCN(Cc2ccc(-c3ncnc4[nH]ccc34)cc2)CC1 [Example 19, 4-(4-(7H-pyrrolo[2,3-d]pyrimidin-4-yl)benzyl)thiomorpholine 1,1-dioxide] | > 0.05 | < 0.02 | > 0.05 | – | – | – | – |
| CC(C)C(=O)Nc1nc2c(-c3ccc(CN4CC(S(C)(=O)=O)C4)cc3)cccn2n1 [Example 12] | > 0.05 | 0.02 to 0.05 | > 0.05 | – | – | – | – |
| CS(=O)(=O)C1CN(Cc2ccc(-c3cccn4nc(NC(=O)C5CC5)nc34)cc2F)C1 [Example 15, N-(8-(3-fluoro-4-((3-(methylsulfonyl)azetidin-1-yl)methyl)phenyl)-[1,2,4]triazolo[1,5-a]pyridin-2-yl]cyclopropanecarboxamide] | – | 0.02 to 0.05 | – | – | – | – | – |
| CS(=O)(=O)C1CN(Cc2ccc(-c3cccc4nc(NC(=O)C5CC5)nn34)cc2F)C1 [Example 2, N-(5-(3-fluoro-4-((3-(methylsulfonyl)azetidin-1-yl)methyl)phenyl)-[1,2,4]triazolo[1,5-a]pyridin-2-yl]cyclopropanecarboxamide] | – | 0.02 to 0.05 | – | – | – | – | – |
| CS(=O)(=O)C1CN(Cc2c(F)cc(-c3cccc4nc(NC(=O)C5CC5)nn34)cc2F)C1 [Example 3, N-(5-(3,5-difluoro-4-((3-(methylsulfonyl)azetidin-1-yl)methyl)phenyl)-[1,2,4]triazolo[1,5-a]pyridin-2-yl]cyclopropanecarboxamide] | > 0.05 | 0.02 to 0.05 | > 0.05 | – | – | – | – |
| CC(C)C(=O)Nc1nc2cccc(-c3ccc(CN4CC(S(=O)(=O)C5CC5)C4)cc3)n2n1 [Example 5, N-(5-(4-((3-(cyclopropylsulfonyl)azetidin-1-yl)methyl)phenyl)-[1,2,4]triazolo[1,5-a]pyridin-2-yl]isobutyramide] | > 0.05 | 0.02 to 0.05 | – | – | – | – | – |

More lines, now with the values ahead:

| IC50 (JAK2; Table 1) [µM] | IC50 (JAK1; Table 1) [µM] | IC50 (JAK3; Table 1) [µM] | IC50 (JAK2; [1]) [µM] | inhibitory activity against JAK1 relative to JAK2 (selectivity) (JAK1; JAK1 versus JAK2, from Table 2) [times] | IC50 (JAK1; [1]) [µM] | IC50 (JAK3; [1]) [µM] | Compound |
| --- | --- | --- | --- | --- | --- | --- | --- |
| > 0.05 | > 0.05 | > 0.05 | – | – | – | – | CCS(=O)(=O)C1CN(Cc2ccc(-c3cccc4nc(NC(=O)C(C)C)nn34)cc2)C1 [Example 6, N-(5-(4-((3-(ethylsulfonyl)azetidin-1-yl)methyl)phenyl)-[1,2,4]triazolo[1,5-a]pyridin-2-yl]isobutyramide] |
| > 0.05 | 0.02 to 0.05 | > 0.05 | – | – | – | – | CC(C)C(=O)Nc1nc2c(-c3ccc(CN4CC(S(=O)(=O)C5CC5)C4)cc3)cccn2n1 [Example 13, N-(8-(4-((3-(cyclopropylsulfonyl)azetidin-1-yl)methyl)phenyl)-[1,2,4]triazolo[1,5-a]pyridin-2-yl]isobutyramide] |
| > 0.05 | 0.02 to 0.05 | > 0.05 | – | – | – | – | CS(=O)(=O)C1CN(Cc2ccc(-c3cccn4nc(NC(=O)C5CC5)nc34)cc2)C1 [Example 9, N-(8-(4-((3-(methylsulfonyl)azetidin-1-yl)methyl)phenyl)-[1,2,4]triazolo[1,5-a]pyridin-2-yl]cyclopropanecarboxamide] |
| > 0.05 | > 0.05 | > 0.05 | – | – | – | – | CS(=O)(=O)C1CN(Cc2c(F)cc(-c3cccn4nc(NC(=O)C5CC5)nc34)cc2F)C1 [Example 16, N-(8-(3,5-difluoro-4-((3-(methylsulfonyl)azetidin-1-yl)methyl)phenyl)-[1,2,4]triazolo[1,5-a]pyridin-2-yl]cyclopropanecarboxamide] |
| > 0.05 | 0.02 to 0.05 | > 0.05 | – | – | – | – | CCS(=O)(=O)C1CN(Cc2ccc(-c3cccn4nc(NC(=O)C5CC5)nc34)cc2)C1 [Example 11, N-(8-(4-((3-(ethylsulfonyl)azetidin-1-yl)methyl)phenyl)-[1,2,4]triazolo[1,5-a]pyridin-2-yl]cyclopropanecarboxamide] |
| > 0.05 | > 0.05 | > 0.05 | – | – | – | – | O=C(Nc1nc2c(-c3ccc(CN4CC(S(=O)(=O)C5CC5)C4)cc3)cccn2n1)C1CC1 [Example 10, N-(8-(4-((3-(cyclopropylsulfonyl)azetidin-1-yl)methyl)phenyl)-[1,2,4]triazolo[1,5-a]pyridin-2-yl]cyclopropanecarboxamide] |
| > 0.05 | 0.02 to 0.05 | 0.02 to 0.05 | – | – | – | – | CS(=O)(=O)C1CN(Cc2ccc(-c3cccn4nc(N)nc34)cc2)C1 [Example 17, 8-(4-((3-(methylsulfonyl)azetidin-1-yl)methyl)phenyl)-[1,2,4]triazolo[1,5-a]pyridin-2-ylamine] |
| > 0.05 | 0.02 to 0.05 | > 0.05 | 0.498 | 10 | 0.048 | 2.43 | CS(=O)(=O)C1CN(Cc2ccc(-c3cccc4nc(NC(=O)C5CC5)nn34)cc2)C1 [Example 1, N-(5-(4-((3-(methylsulfonyl)azetidin-1-yl)methyl)phenyl)-[1,2,4]triazolo[1,5-a]pyridin-2-yl]cyclopropanecarboxamide] |
